Source: ChEMBL document CHEMBL5113477, “Membrane acting Povarov-Doebner derived compounds potently disperse preformed multidrug resistant Gram-positive bacterial biofilms” (Eur J Med Chem, 2022)
≈ marks a conversion by molar mass, not a printed value.

Legend:
Assay type in all cases: functional
Staphylococcus aureus [1] = assay: Antibacterial activity against Staphylococcus aureus ATCC 25923 assessed as reduction in visible bacterial growth incubated for 18 to 20 hrs by CLSI based broth microdilution analysis; settings: time 18-20 hrs
Enterococcus faecalis [2] = assay: Antibacterial activity against Enterococcus faecalis ATCC 29212 assessed as reduction in visible bacterial growth incubated for 18 to 20 hrs by CLSI based broth microdilution analysis; settings: time 18-20 hrs
Staphylococcus aureus [3] = assay: Antibacterial activity against methicillin-resistant Staphylococcus aureus ATCC 33592 assessed as reduction in visible bacterial growth incubated for 18 to 20 hrs by CLSI based broth microdilution analysis; settings: time 18-20 hrs
Listeria monocytogenes = assay: Antibacterial activity against Listeria monocytogenes ATCC 19115 assessed as reduction in visible bacterial growth incubated for 18 to 20 hrs by CLSI based broth microdilution analysis; settings: time 18-20 hrs
Staphylococcus aureus [4] = assay: Antibacterial activity against methicillin-resistant Staphylococcus aureus USA 300 assessed as reduction in visible bacterial growth incubated for 18 to 20 hrs by CLSI based broth microdilution analysis; settings: time 18-20 hrs
Enterococcus faecium [5] = assay: Antibacterial activity against vancomycin-resistant Enterococcus faecium ATCC 700221 assessed as reduction in visible bacterial growth incubated for 18 to 20 hrs by CLSI based broth microdilution analysis; settings: time 18-20 hrs
Enterococcus faecalis [6] = assay: Antibacterial activity against vancomycin-resistant Enterococcus faecalis ATCC 51575 assessed as reduction in visible bacterial growth incubated for 18 to 20 hrs by CLSI based broth microdilution analysis; settings: time 18-20 hrs
Enterococcus faecium [7] = assay: Antibiofilm activity against vancomycin-resistant Enterococcus faecium ATCC 700221 in TSB broth assessed as dispersal of glucose-induced biofilm preincubated with glucose for 48 hrs followed by compound addition and measured after 24 hrs by crystal violet staining based analysis
Enterococcus faecalis [8] = assay: Antibiofilm activity against vancomycin-resistant Enterococcus faecalis ATCC 51575 in TSB broth assessed as dispersal of glucose-induced biofilm preincubated with glucose for 48 hrs followed by compound addition and measured after 24 hrs by crystal violet staining based analysis
Staphylococcus aureus [9] = assay: Antibiofilm activity against methicillin-resistant Staphylococcus aureus USA 300 in TSB broth assessed as dispersal of glucose-induced biofilm preincubated with glucose for 48 hrs followed by compound addition and measured after 24 hrs by crystal violet staining based analysis
Staphylococcus aureus [10] = assay: Antibacterial activity against methicillin-resistant Staphylococcus aureus USA 300 (ARLG 1663) assessed as reduction in visible bacterial growth incubated for 18 to 20 hrs by CLSI based broth microdilution analysis; settings: time 18-20 hrs
Staphylococcus aureus [11] = assay: Antibacterial activity against methicillin-resistant Staphylococcus aureus USA 300 (ARLG 1568) assessed as reduction in visible bacterial growth incubated for 18 to 20 hrs by CLSI based broth microdilution analysis; settings: time 18-20 hrs
Staphylococcus aureus [12] = assay: Antibacterial activity against methicillin-resistant Staphylococcus aureus USA 300 (ARLG 1644) assessed as reduction in visible bacterial growth incubated for 18 to 20 hrs by CLSI based broth microdilution analysis; settings: time 18-20 hrs
Staphylococcus aureus [13] = assay: Antibacterial activity against methicillin-resistant Staphylococcus aureus USA 300 (ARLG 1649) assessed as reduction in visible bacterial growth incubated for 18 to 20 hrs by CLSI based broth microdilution analysis; settings: time 18-20 hrs
Staphylococcus aureus [14] = assay: Antibacterial activity against methicillin-resistant Staphylococcus aureus USA 300 (ARLG 1569) assessed as reduction in visible bacterial growth incubated for 18 to 20 hrs by CLSI based broth microdilution analysis; settings: time 18-20 hrs
Staphylococcus aureus [15] = assay: Antibacterial activity against methicillin-resistant Staphylococcus aureus USA 300 (ARLG 1567) assessed as reduction in visible bacterial growth incubated for 18 to 20 hrs by CLSI based broth microdilution analysis; settings: time 18-20 hrs
Staphylococcus aureus [16] = assay: Antibacterial activity against methicillin-resistant Staphylococcus aureus USA 300 (ARLG 1561) assessed as reduction in visible bacterial growth incubated for 18 to 20 hrs by CLSI based broth microdilution analysis; settings: time 18-20 hrs
Staphylococcus aureus [17] = assay: Antibacterial activity against methicillin-resistant Staphylococcus aureus USA 300 (ARLG 1665) assessed as reduction in visible bacterial growth incubated for 18 to 20 hrs by CLSI based broth microdilution analysis; settings: time 18-20 hrs
Staphylococcus aureus [18] = assay: Antibacterial activity against methicillin-resistant Staphylococcus aureus USA 300 (ARLG 1570) assessed as reduction in visible bacterial growth incubated for 18 to 20 hrs by CLSI based broth microdilution analysis; settings: time 18-20 hrs

`COc1ccc2c(c1)[C@H]1[C@@H]3CC[C@@H](C3)[C@H]1[C@H](c1ccc(O)cc1)N2` showed an MIC (Staphylococcus aureus [1]) of 4 µg/mL (≈ 12.4 µM).

`Oc1ccc([C@@H]2Nc3ccc(SC(F)(F)F)cc3[C@H]3[C@@H]4CC[C@@H](C4)[C@H]32)cc1` showed an MIC (Enterococcus faecalis [2]) of 2 µg/mL (≈ 5.11 µM), an MIC (Staphylococcus aureus [1]) of 2 µg/mL (≈ 5.11 µM) and an MIC (Staphylococcus aureus [3]) of 2 µg/mL (≈ 5.11 µM). The MIC (Listeria monocytogenes) was 2 µg/mL (≈ 5.11 µM), the MIC (Staphylococcus aureus [4]) was 2 µg/mL (≈ 5.11 µM) and the MIC (Enterococcus faecium [5]) was 2 µg/mL (≈ 5.11 µM). The MIC (Enterococcus faecalis [6]) was 2 µg/mL (≈ 5.11 µM).

`Oc1ccc([C@@H]2Nc3cc(F)cc(F)c3[C@H]3[C@@H]4CC[C@@H](C4)[C@H]32)cc1` was tested, and the MIC (Staphylococcus aureus [1]) was 4 µg/mL (≈ 12.2 µM).

`Oc1ccc([C@@H]2Nc3ccc(OC(F)(F)F)cc3[C@H]3[C@@H]4CC[C@@H](C4)[C@H]32)cc1` gave an MIC (Staphylococcus aureus [1]) of over 16 µg/mL.

With `Oc1ccccc1[C@@H]1Nc2ccc(S(F)(F)(F)(F)F)cc2[C@H]2[C@@H]3CC[C@@H](C3)[C@H]21` the MIC (Staphylococcus aureus [1]) was 4 µg/mL (≈ 9.58 µM).

For `Oc1ccc([C@@H]2Nc3c(SC(F)(F)F)cccc3[C@H]3[C@@H]4CC[C@@H](C4)[C@H]32)cc1`, the MIC (Staphylococcus aureus [1]) was over 16 µg/mL.

`FS(F)(F)(F)(F)c1ccc2c(c1)[C@H]1[C@@H]3CC[C@@H](C3)[C@H]1[C@H](c1ccccc1)N2` showed an MIC (Staphylococcus aureus [1]) of over 16 µg/mL.

`Oc1c(Cl)cc(Cl)cc1Sc1cc(Cl)cc(Cl)c1O` [BITHIONOL] was tested, and the MBEC (Enterococcus faecium [7]) was 8 µg/mL, the MBEC (Enterococcus faecalis [8]) was 8 µg/mL and the MBEC (Staphylococcus aureus [9]) was 8 µg/mL.

Work on `CN[C@H](CC(C)C)C(=O)N[C@H]1C(=O)N[C@@H](CC(N)=O)C(=O)N[C@H]2C(=O)N[C@H]3C(=O)N[C@H](C(=O)N[C@H](C(=O)O)c4cc(O)cc(O)c4-c4cc3ccc4O)[C@H](O)c3ccc(c(Cl)c3)Oc3cc2cc(c3O[C@@H]2O[C@H](CO)[C@@H](O)[C@H](O)[C@H]2O[C@H]2C[C@](C)(N)[C@H](O)[C@H](C)O2)Oc2ccc(cc2Cl)[C@H]1O` [VANCOMYCIN] yielded an MBC (Enterococcus faecalis [2]) of 2 µg/mL (≈ 1.38 µM), an MIC (Enterococcus faecalis [2]) of 2 µg/mL (≈ 1.38 µM) and an MBC (Staphylococcus aureus [10]) of 1 µg/mL (≈ 0.69 µM). For the same compound, the MBC (Staphylococcus aureus [1]) was 2 µg/mL (≈ 1.38 µM), the MBC (Staphylococcus aureus [11]) was 1 µg/mL (≈ 0.69 µM) and the MBC (Staphylococcus aureus [3]) was 1 µg/mL (≈ 0.69 µM). The MBC (Staphylococcus aureus [12]) was 1 µg/mL (≈ 0.69 µM), the MBC (Staphylococcus aureus [13]) was 1 µg/mL (≈ 0.69 µM) and the MBC (Listeria monocytogenes) was 2 µg/mL (≈ 1.38 µM). For the same compound, the MIC (Listeria monocytogenes) was 1 µg/mL (≈ 0.69 µM), the MBC (Staphylococcus aureus [14]) was 1 µg/mL (≈ 0.69 µM) and the MBC (Staphylococcus aureus [15]) was 1 µg/mL (≈ 0.69 µM). It also gave an MBC (Staphylococcus aureus [4]) of 2 µg/mL (≈ 1.38 µM), an MBC (Staphylococcus aureus [16]) of 1 µg/mL (≈ 0.69 µM) and an MBC (Staphylococcus aureus [17]) of 8 µg/mL (≈ 5.52 µM). For the same compound, the MBC (Staphylococcus aureus [18]) was 2 µg/mL (≈ 1.38 µM).

In the case of `Oc1ccc([C@@H]2Nc3ccc(OC(F)F)cc3[C@H]3[C@@H]4CC[C@@H](C4)[C@H]32)cc1`, the MIC (Staphylococcus aureus [1]) is reported as 8 µg/mL (≈ 22.4 µM).

`O=[N+]([O-])c1ccc(O)c2ncccc12` [NITROXOLINE] showed an MBEC (Enterococcus faecium [7]) of 16 µg/mL, an MBEC (Enterococcus faecalis [8]) of 16 µg/mL and an MBEC (Staphylococcus aureus [9]) of 16 µg/mL.
